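Interpolation was linear, between the two tested concentrations surrounding the appropriate level; five concentrations were tested over 48 hours in 96-well plates. GI50: concentration for 50% inhibition of growth. At the TGI there is no net growth.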 Active and inactive are the calls of the source. No stated cut-off is given here; in the data, active means GI50 below about 0.43 µM; inactive means the rest.
Columns and labels:
Assay in all cases: NCI-60 cell line screen, 48 h
SK-MEL-5 melanoma = test system: SK-MEL-5 melanoma
SF-295 CNS = test system: SF-295 CNS
OVCAR-4 ovarian = test system: OVCAR-4 ovarian
HT29 colon = test system: HT29 colon
KM20L2 colon = test system: KM20L2 colon
EKVX NSCLC = test system: EKVX NSCLC
SK-MEL-2 melanoma = test system: SK-MEL-2 melanoma
IGROV1 ovarian = test system: IGROV1 ovarian
U251 CNS = test system: U251 CNS
UO-31 renal = test system: UO-31 renal
SW-620 colon = test system: SW-620 colon
CAKI-1 renal = test system: CAKI-1 renal
LOX IMVI melanoma = test system: LOX IMVI melanoma
MOLT-4 leukemia = test system: MOLT-4 leukemia
COLO 205 colon = test system: COLO 205 colon
HCT-15 colon = test system: HCT-15 colon
M19-MEL melanoma = test system: M19-MEL melanoma
SN12C renal = test system: SN12C renal
A549 NSCLC = test system: A549 NSCLC
UACC-257 melanoma = test system: UACC-257 melanoma
DLD-1 colon = test system: DLD-1 colon
786-0 renal = test system: 786-0 renal
MALME-3M melanoma = test system: MALME-3M melanoma
NCI-H226 lung = test system: NCI-H226 lung
SNB-19 CNS = test system: SNB-19 CNS
SK-MEL-28 melanoma = test system: SK-MEL-28 melanoma
LXFL 529 NSCLC = test system: LXFL 529 NSCLC
CCRF-CEM leukemia = test system: CCRF-CEM leukemia
UACC-62 melanoma = test system: UACC-62 melanoma
RPMI-8226 leukemia = test system: RPMI-8226 leukemia
DMS 114 small cell lung = test system: DMS 114 small cell lung
K-562 leukemia = test system: K-562 leukemia
NCI-H460 lung = test system: NCI-H460 lung
OVCAR-5 ovarian = test system: OVCAR-5 ovarian
OVCAR-8 ovarian = test system: OVCAR-8 ovarian
SR leukemia = test system: SR leukemia
DMS 273 small cell lung = test system: DMS 273 small cell lung
M14 melanoma = test system: M14 melanoma
HCT-116 colon = test system: HCT-116 colon
HCC-2998 colon = test system: HCC-2998 colon
SF-268 CNS = test system: SF-268 CNS
SF-539 CNS = test system: SF-539 CNS
SK-OV-3 ovarian = test system: SK-OV-3 ovarian
OVCAR-3 ovarian = test system: OVCAR-3 ovarian
SNB-78 CNS = test system: SNB-78 CNS
HOP-62 NSCLC = test system: HOP-62 NSCLC
NCI-H23 lung = test system: NCI-H23 lung
XF 498 CNS = test system: XF 498 CNS
SNB-75 CNS = test system: SNB-75 CNS
NCI-H522 lung = test system: NCI-H522 lung
KM12 colon = test system: KM12 colon
HL-60(TB) leukemia = test system: HL-60(TB) leukemia
RXF 393 renal = test system: RXF 393 renal
ACHN renal = test system: ACHN renal
HOP-92 NSCLC = test system: HOP-92 NSCLC
A498 renal = test system: A498 renal
TK-10 renal = test system: TK-10 renal
HOP-18 NSCLC = test system: HOP-18 NSCLC

CC1(C)CC(/C=C2/OC(=O)c3ccccc32)=C(C(N)=O)C(=O)O1
> 100 µM: TGI (SK-MEL-5 melanoma) | TGI (SF-295 CNS) | TGI (OVCAR-4 ovarian) | TGI (HT29 colon) | TGI (KM20L2 colon) | TGI (EKVX NSCLC) | TGI (SK-MEL-2 melanoma) | TGI (IGROV1 ovarian) | TGI (U251 CNS) | TGI (UO-31 renal) | TGI (SW-620 colon) | TGI (CAKI-1 renal) | TGI (LOX IMVI melanoma) | TGI (MOLT-4 leukemia) | TGI (COLO 205 colon) | TGI (HCT-15 colon) | TGI (M19-MEL melanoma) | TGI (SN12C renal) | TGI (A549 NSCLC) | TGI (UACC-257 melanoma) | TGI (DLD-1 colon) | TGI (786-0 renal) | TGI (MALME-3M melanoma) | TGI (NCI-H226 lung) | TGI (SNB-19 CNS) | TGI (SK-MEL-28 melanoma) | TGI (LXFL 529 NSCLC) | TGI (CCRF-CEM leukemia) | TGI (UACC-62 melanoma) | TGI (RPMI-8226 leukemia) | TGI (DMS 114 small cell lung) | TGI (K-562 leukemia) | TGI (NCI-H460 lung) | TGI (OVCAR-5 ovarian) | TGI (OVCAR-8 ovarian) | TGI (SR leukemia) | TGI (DMS 273 small cell lung) | TGI (M14 melanoma) | TGI (HCT-116 colon) | TGI (HCC-2998 colon) | TGI (SF-268 CNS) | TGI (SF-539 CNS) | TGI (SK-OV-3 ovarian) | TGI (OVCAR-3 ovarian) | TGI (SNB-78 CNS) | TGI (HOP-62 NSCLC) | TGI (NCI-H23 lung) | TGI (XF 498 CNS) | TGI (SNB-75 CNS) | TGI (NCI-H522 lung) | TGI (KM12 colon)

C=C1C(=O)O[C@@H]2C1C(OC(C)CCC)[C@@H](O)[C@@H](C)C(O)C1O[C@]1(C)[C@H]2O (stereo not given in full)
inactive: outcome (HL-60(TB) leukemia) | outcome (SF-295 CNS) | outcome (OVCAR-4 ovarian) | outcome (HT29 colon) | outcome (KM20L2 colon) | outcome (EKVX NSCLC) | outcome (RXF 393 renal) | outcome (SK-MEL-2 melanoma) | outcome (IGROV1 ovarian) | outcome (ACHN renal) | outcome (U251 CNS) | outcome (UO-31 renal) | outcome (SW-620 colon) | outcome (CAKI-1 renal) | outcome (LOX IMVI melanoma) | outcome (MOLT-4 leukemia) | outcome (COLO 205 colon) | outcome (HCT-15 colon) | outcome (M19-MEL melanoma) | outcome (SN12C renal) | outcome (A549 NSCLC) | outcome (UACC-257 melanoma) | outcome (DLD-1 colon) | outcome (HOP-92 NSCLC) | outcome (786-0 renal) | outcome (MALME-3M melanoma) | outcome (NCI-H226 lung) | outcome (SNB-19 CNS) | outcome (LXFL 529 NSCLC) | outcome (CCRF-CEM leukemia) | outcome (UACC-62 melanoma) | outcome (RPMI-8226 leukemia) | outcome (DMS 114 small cell lung) | outcome (K-562 leukemia) | outcome (NCI-H460 lung) | outcome (OVCAR-5 ovarian) | outcome (OVCAR-8 ovarian) | outcome (SR leukemia) | outcome (DMS 273 small cell lung) | outcome (M14 melanoma) | outcome (HCC-2998 colon) | outcome (SF-268 CNS) | outcome (SF-539 CNS) | outcome (SK-OV-3 ovarian) | outcome (OVCAR-3 ovarian) | outcome (SNB-78 CNS) | outcome (HOP-62 NSCLC) | outcome (NCI-H23 lung) | outcome (XF 498 CNS) | outcome (SNB-75 CNS) | outcome (NCI-H522 lung) | outcome (KM12 colon)

Nc1ccc(C(=O)N/C(=C\c2cccc([N+](=O)[O-])c2)c2nc3ccccc3[nH]2)cc1
59.4 µM: TGI (RXF 393 renal)
> 66.4 µM: TGI (HOP-92 NSCLC)
67 µM: TGI (HOP-62 NSCLC)
> 83.3 µM: TGI (OVCAR-4 ovarian)
> 100 µM: TGI (SK-MEL-5 melanoma) | TGI (HL-60(TB) leukemia) | TGI (SF-295 CNS) | TGI (HT29 colon) | TGI (KM20L2 colon) | TGI (EKVX NSCLC) | TGI (SK-MEL-2 melanoma) | TGI (IGROV1 ovarian) | TGI (ACHN renal) | TGI (U251 CNS) | TGI (A498 renal) | TGI (SW-620 colon) | TGI (CAKI-1 renal) | TGI (LOX IMVI melanoma) | TGI (MOLT-4 leukemia) | TGI (COLO 205 colon) | TGI (HCT-15 colon) | TGI (M19-MEL melanoma) | TGI (SN12C renal) | TGI (A549 NSCLC) | TGI (DLD-1 colon) | TGI (786-0 renal) | TGI (MALME-3M melanoma) | TGI (NCI-H226 lung) | TGI (SNB-19 CNS) | TGI (SK-MEL-28 melanoma) | TGI (LXFL 529 NSCLC) | TGI (CCRF-CEM leukemia) | TGI (UACC-62 melanoma) | TGI (RPMI-8226 leukemia) | TGI (DMS 114 small cell lung) | TGI (K-562 leukemia) | TGI (NCI-H460 lung) | TGI (OVCAR-5 ovarian) | TGI (OVCAR-8 ovarian) | TGI (SR leukemia) | TGI (DMS 273 small cell lung) | TGI (M14 melanoma) | TGI (HCT-116 colon) | TGI (TK-10 renal) | TGI (HCC-2998 colon) | TGI (SF-268 CNS) | TGI (SF-539 CNS) | TGI (OVCAR-3 ovarian) | TGI (SNB-78 CNS) | TGI (NCI-H23 lung) | TGI (KM12 colon)
98.8 µM: TGI (NCI-H522 lung)
59.8 µM: TGI (XF 498 CNS)
63.8 µM: TGI (UO-31 renal)
69.4 µM: TGI (SNB-75 CNS)
> 82.7 µM: TGI (SK-OV-3 ovarian)

C/C=C/CC(S(=O)(=O)c1ccccc1)S(=O)(=O)c1ccccc1
> 100 µM: TGI (SK-MEL-5 melanoma) | TGI (HL-60(TB) leukemia) | TGI (SF-295 CNS) | TGI (OVCAR-4 ovarian) | TGI (HT29 colon) | TGI (KM20L2 colon) | TGI (EKVX NSCLC) | TGI (RXF 393 renal) | TGI (SK-MEL-2 melanoma) | TGI (IGROV1 ovarian) | TGI (ACHN renal) | TGI (U251 CNS) | TGI (A498 renal) | TGI (UO-31 renal) | TGI (SW-620 colon) | TGI (LOX IMVI melanoma) | TGI (MOLT-4 leukemia) | TGI (COLO 205 colon) | TGI (HCT-15 colon) | TGI (HOP-18 NSCLC) | TGI (SN12C renal) | TGI (A549 NSCLC) | TGI (UACC-257 melanoma) | TGI (DLD-1 colon) | TGI (HOP-92 NSCLC) | TGI (NCI-H226 lung) | TGI (SNB-19 CNS) | TGI (SK-MEL-28 melanoma) | TGI (CCRF-CEM leukemia) | TGI (UACC-62 melanoma) | TGI (RPMI-8226 leukemia) | TGI (K-562 leukemia) | TGI (NCI-H460 lung) | TGI (OVCAR-5 ovarian) | TGI (OVCAR-8 ovarian) | TGI (SR leukemia) | TGI (DMS 273 small cell lung) | TGI (M14 melanoma) | TGI (HCT-116 colon) | TGI (TK-10 renal) | TGI (HCC-2998 colon) | TGI (SF-539 CNS) | TGI (SK-OV-3 ovarian) | TGI (OVCAR-3 ovarian) | TGI (HOP-62 NSCLC) | TGI (NCI-H23 lung) | TGI (XF 498 CNS) | TGI (SNB-75 CNS) | TGI (NCI-H522 lung) | TGI (KM12 colon)
81.8 µM: TGI (DMS 114 small cell lung)

COc1cccc(C=O)c1[O-].COc1cccc(C=O)c1[O-].[Cu+2]
37.6 µM: TGI (LOX IMVI melanoma)
6.27 µM: TGI (SK-MEL-5 melanoma)
16.5 µM: TGI (LXFL 529 NSCLC)
23.7 µM: TGI (DLD-1 colon)
32.3 µM: TGI (KM20L2 colon)
31.8 µM: TGI (SK-OV-3 ovarian)
44.7 µM: TGI (OVCAR-8 ovarian)
28 µM: TGI (HOP-92 NSCLC)
6.85 µM: TGI (OVCAR-4 ovarian)
35.4 µM: TGI (U251 CNS) | TGI (SNB-75 CNS)
35.3 µM: TGI (SF-268 CNS)
26.8 µM: TGI (HOP-18 NSCLC)
19.3 µM: TGI (NCI-H522 lung)
19.8 µM: TGI (HCT-15 colon)
36.2 µM: TGI (DMS 273 small cell lung)
30.5 µM: TGI (ACHN renal)
20.8 µM: TGI (COLO 205 colon)
> 100 µM: TGI (SF-295 CNS)
31.7 µM: TGI (HOP-62 NSCLC)
46 µM: TGI (HL-60(TB) leukemia)
77.7 µM: TGI (EKVX NSCLC)
36.3 µM: TGI (SW-620 colon)
68.2 µM: TGI (NCI-H226 lung)
30.7 µM: TGI (KM12 colon)
73.8 µM: TGI (NCI-H460 lung)
55 µM: TGI (A549 NSCLC)
41.4 µM: TGI (RPMI-8226 leukemia) | TGI (SF-539 CNS)
46.8 µM: TGI (HT29 colon)
17.9 µM: TGI (K-562 leukemia)
28.3 µM: TGI (CCRF-CEM leukemia)
18.6 µM: TGI (MOLT-4 leukemia)
34 µM: TGI (SN12C renal)
28.5 µM: TGI (SK-MEL-28 melanoma)
1.2 µM: TGI (DMS 114 small cell lung)
19.2 µM: TGI (XF 498 CNS)
21 µM: TGI (OVCAR-3 ovarian)
10.3 µM: TGI (CAKI-1 renal)
31.4 µM: TGI (M14 melanoma)
30.1 µM: TGI (HCT-116 colon)
20.1 µM: TGI (MALME-3M melanoma)
31.9 µM: TGI (786-0 renal)
39.4 µM: TGI (A498 renal)
29 µM: TGI (HCC-2998 colon)
inactive: GI50 (HL-60(TB) leukemia) 21.7 µM | GI50 (CAKI-1 renal) 2.83 µM | GI50 (XF 498 CNS) 6.8 µM
12.8 µM: TGI (SK-MEL-2 melanoma)
31.2 µM: TGI (SNB-19 CNS)

Reference: PubChem BioAssay (NCI)
